Source: US11400035B2, “Preservative mixture” (Symrise AG, priority 2016, dated 2022)

Columns and labels:
[1] = experimentally determined values from literature; cited from earlier work
[2] = Recrystallization in shampoo, 2 days at 5° C., microscopy; type: physicochemical; settings: polarized light, 60 fold, 0.1% 4-isopropyl-3-methyl-phenol
Description: To investigate the influence on recrystallization in a finished formulation the pre-solutions BC, BC2, BC3 and BC5 (Table 3) in comparison to neat 4-isopropyl-3-methyl phenol were incorporated into a shampoo. (Table 5, trials 1-5) The samples were stored for 2 days at 5° C. and then examined by microscopy.
Production method shampoo: Blend Phase A by stirring slowly with a vane stirrer, stop the process when foaming starts. Swell Ucare Poylmer JR-400 in water by stirring and warming up to 50° C. (The dispersion becomes clear and slightly viscous, when swelling process is completed) Add Phases B, C and D to A one after the other by stirring with a vane stirrer.
Incorporation of 4-isopropyl-3-methyl-phenol (neat) into the finished shampoo: Heat up the shampoo to 70° C., add 4-isopropyl-3-methyl-phenol and stir for 15 min.
Incorporation of solutions BC, BC2, B3 and BC5: Blend 0,45% (corresponds to 0,1% neat 4-isopropyl-3-methyl-phenol) of the different mixtures with the shampoo formula at 22° C. by […]
Microscopic images (Olympus IX 70, polarized light, 60 fold) of shampoo formulae 1-5 after 2 days storage at 5° C. are provided in FIGS. 4A to 4E.

[3] = General solubility of 4-isopropyl-3-methyl-phenol in different hydrophilic solvents, storage at 5° C.; type: physicochemical; settings: stored at 5° C.
Description: After preparation, the samples were stored at 5° C. for […]. […] The evaluation of these limits was important for further determination of quantitative solubility improvement. The results are compiled in Table A and 13; the symbols have the following meanings: (++++) fully dissolved; (++) dissolved, but moderate recrystallisation after 48 h at 5° C.; (+) dissolved, but strong recrystallisation after 48 h at 5° C.; (#) not dissolved.

SMILES	LOG Po/w (exp.) [1]	also measured
CCCCC(O)CO (stereo not shown) [1,2-Hexanediol]	0.69	
Cc1cc(O)ccc1C(C)C [4-isopropyl-3-methyl-phenol]		Recrystallization in shampoo [2]: recrystallized
OCc1ccccc1 [Benzylalkohol]		Solubility of 4-isopropyl-3-methyl-phenol in different hydrophilic solvents ([3]; Concentration 15 % b.w.): ++; Solubility of 4-isopropyl-3-methyl-phenol in different hydrophilic solvents ([3]; Concentration 22 % b.w.): +; Solubility of 4-isopropyl-3-methyl-phenol in different hydrophilic solvents ([3]; Concentration 25 % b.w.): +; Solubility of 4-isopropyl-3-methyl-phenol in different hydrophilic solvents ([3]; Concentration 30 % b.w.): +; Solubility of 4-isopropyl-3-methyl-phenol in different hydrophilic solvents ([3]; Concentration 34 % b.w.): +; Solubility of 4-isopropyl-3-methyl-phenol in different hydrophilic solvents ([3]; Concentration 36 % b.w.): +; Solubility of 4-isopropyl-3-methyl-phenol in different hydrophilic solvents ([3]; Concentration 40 % b.w.): +; Solubility of 4-isopropyl-3-methyl-phenol in different hydrophilic solvents ([3]; Concentration 46 % b.w.): +
Cc1ccc(C(C)C)cc1O [Carvacrol]	3.49	
C=C(C)C1CC=C(C)C(=O)C1 (stereo not shown) [Carvone]	2.71	
CCOCCOCCO [Ethoxydiglycol]	−0.54	
CCCCCCCCCCCC(=O)OCC [Ethyl Laurate]	5.71	
CCOC(C)=O [Ethyl acetate]	0.73	
OCCO [Ethylene glycol]	−1.36	
O=C1OCC(CO)O1 (stereo not shown) [Glycerin Carbonate]		Solubility of 4-isopropyl-3-methyl-phenol in different hydrophilic solvents ([3]; Concentration 5 % b.w.): ++
CC(=O)OCCC(C)C [Isoamyl acetate]	2.25	
C=C(C)[C@H]1CC=C(C)CC1 [Limonene]	4.38	
CC(C)[C@@H]1CC[C@@H](C)CC1=O [Menthone]	3.05	
CC(=O)OC1CC(C)CCC1C(C)C (stereo not shown) [Menthyl acetate]	4.00	
COC(=O)c1ccccc1O [Methyl salicylate]	2.55	
O=C(OCCc1ccccc1)c1ccccc1 [Phenethyl Benzoate]	4.01	
OCCOc1ccccc1 [Phenoxyethanol]	1.16	
CC1COC(=O)O1 (stereo not shown) [Propylene Carbonate]		Solubility of 4-isopropyl-3-methyl-phenol in different hydrophilic solvents ([3]; Concentration 18 % b.w.): ++; Solubility of 4-isopropyl-3-methyl-phenol in different hydrophilic solvents ([3]; Concentration 29 % b.w.): +
CC(O)CO (stereo not shown) [Propylene Glycol]		Solubility of 4-isopropyl-3-methyl-phenol in different hydrophilic solvents ([3]; Concentration 22 % b.w.): ++; Solubility of 4-isopropyl-3-methyl-phenol in different hydrophilic solvents ([3]; Concentration 25 % b.w.): +
